Results taken from patent publication US10213486B2, “Formulations of diluted amino acid segments and methods for making same” (priority 2011, dated 2019).
Converted amounts (≈) assume the structure as drawn. Peptide text beside a SMILES is read from it.

Assay: physchem
Description: The segments were synthesized at a cGMP facility using standard techniques for amino acid synthesis.

Compound `CC[C@H](C)[C@H](NC(=O)[C@@H]1CCCN1C(=O)[C@H](C)NC(=O)CNC(=O)[C@@H]1CCCN1C(=O)[C@H](CCC(N)=O)NC(=O)[C@H](CO)NC(=O)[C@H](Cc1ccccc1)NC(=O)[C@H](Cc1ccccc1)NC(=O)[C@@H]1CCCN1C(=O)[C@H](CC(N)=O)NC(=O)[C@H](CCC(=O)O)NC(=O)[C@H](CCC(N)=O)NC(=O)[C@H](CC(C)C)NC(=O)[C@@H](NC(=O)[C@H](CS)NC(=O)[C@H](CCC(=O)O)NC(=O)[C@@H]1CCCN1C(=O)[C@H](CS)NC(=O)[C@H](CC(=O)O)NC(=O)[C@H](CCC(N)=O)NC(=O)[C@@H](NC(=O)[C@H](CC(=O)O)NC(=O)[C@@H]1CCCN1C(=O)[C@H](C)N)C(C)C)[C@@H](C)O)C(=O)O` [first amino acid segment] (H-APDVQDCPECTLQENPFFSQPGAPI-OH) has a solubility of 1000 µg/mL (≈ 370 µM).
